{
  "source": "paper PMC8534003",
  "about": "“The Chemokine-Based Peptide, CXCL9(74-103), Inhibits Angiogenesis by Blocking Heparan Sulfate Proteoglycan-Mediated Signaling of Multiple Endothelial Growth Factors” (Cancers, 2021)",
  "key": {"[1]": {"system": "human microvascular endothelial cells (HMVECs)", "test": "xCELLigence adhesion assay", "format": "cell-based", "conditions": "VEGF165 50 ng/mL, peptide 3 µM, 1 h, gelatin coat; n = 2–6", "experimental": "The wells of an E-plate (ACEA Biosciences, Inc.) were washed and coated with 0.1% (v/v) gelatin in phosphate-buffered saline (PBS) at 37 °C for 1 h. Following a washing step, wells were incubated with 0.1% (v/v) bovine serum albumin (BSA) in PBS at 37 °C for 1 h. After washing, 50 µL basal MCDB131 medium was added and the plate was allowed to equilibrate at 37 °C. HMVECs were harvested and seeded at 4 × 10^4 cells/well together with 50 ng/mL VEGF165 with or without 0.03, 0.3 or 3 µM of CXCL9(74-103) or 3 µM of CXCL9(86-103) in 100 µL control medium (vide supra). Real-time changes in electrical impedance depicted as cell indices, as measure for cell adhesion and spreading, were analyzed using the xCELLigence® RTCA DP System. The adhesion of HMVECs was analyzed 1 h after seeding."}, "[2]": {"system": "MDA-MB-231 breast cancer xenograft", "test": "In vivo MDA-MB-231 breast cancer mouse model", "design": "species or system human tumor cells in SCID mice", "conditions": "800 µg s.c. osmotic pump; text says data not shown", "experimental": "Six-to-eight-week-old female SCID mice were s.c. injected with 6 × 10^6 MDA-MB-231 breast tumor cells (American Type Culture Collection, Manassas, VA) in 200 µL PBS. Three days later, mice were anesthetized as described (vide supra), a dorsal incision was made and an ALZET osmotic pump (model 1002, DURECT Corporation) containing 800 µg/100 µL CXCL9(74-103) or CXCL9(86-103) or 100 µL PBS was s.c. implanted, which delivered a continuous dose over the course of two weeks. Three weeks after tumor cell injection, mice were sacrificed. Tumors were isolated, minced and added to 2 mL of tumor cell medium [TCM; 5% (v/v) FCS in RPMI 1640 + Glutamax (Gibco)]. After centrifugation (500 g, room temperature, 5 min), minced tumors were incubated at 37 °C for 30 min in 3 mL of digestion medium [2 mg/mL collagenase D, 0.1 mg/mL DNAse and 5 U/mL dispase (Corning Life Sciences) in TCM]. Subsequently, tumor fragments were further disrupted using a 1 mL syringe and 18G needle, and 2 mL of digestion medium was added for an additional incubation at 37 °C for 15 min. […] After centrifugation (500 g, 4 °C, 5 min), the pellet was resuspended in 500 µL of 2% (v/v) FCS in PBS and the cells were counted. To assess the anti-angiogenic potential of the CXCL9-derived peptides, the population of endothelial cells within the tumor samples was determined via flow cytometry (vide supra)."}, "phospho-ERK1/2": {"system": "phospho-ERK1/2", "test": "Signal transduction assay, VEGF165-induced ERK phosphorylation in MECs (ELISA)", "format": "cell-based, mouse", "conditions": "murine VEGF165 5 ng/mL 5 min, peptide 1 µM, n ≥ 3", "experimental": "HMVECs and MECs were seeded in 6-well plates at 1.25 × 10^5 cells/well in their respective culture medium. Once the cell density reached 70–80% confluency, the cells were starved in serum-free medium overnight. Fifteen minutes prior to stimulation, cells were incubated with various concentrations of CXCL9(74-103) or CXCL9(86-103) in 0.5% (v/v) BSA in MCDB131 or DMEM medium (assay medium for HMVECs and MECs, respectively) at 37 °C. HMVECs and MECs were stimulated with assay medium alone or supplemented with 10 ng/mL EGF or 5 ng/mL murine VEGF165 at 37 °C for 15 or 5 min, respectively. Then, the cells were placed on ice, washed with ice-cold PBS and 90 µL of lysis buffer [1% (v/v) protease inhibitor cocktail, phosphatase inhibitor cocktail 2 and 3 (all Sigma-Aldrich) in 1 mM ethylenediaminetetraacetic acid (EDTA), 0.5% (v/v) Triton™ X-100, 5 mM NaF, 6 M urea in PBS] was added per well. […] The amount of phospho-ERK1/2 in the cell lysates was determined using an ERK1 (Thr202/Tyr204)/ERK2 (Thr185/Tyr187) ELISA duoset (R&D Systems) according to the manufacturer’s instructions. The amount of phosphorylated ERK was normalized to the total protein content in the samples measured by the Pierce™ bicinchoninic acid (BCA) protein assay kit (Thermo Fisher Scientific)."}, "HMVEC spheroids": {"system": "HMVEC spheroids", "test": "Spheroid sprouting assay", "format": "cell-based, human", "conditions": "FGF-2 10 ng/mL, peptide 3 µM, 16 hours; n = 5 experiments", "experimental": "A 1:5 mixture of endothelial cells (4 × 10^4 cells/mL) and methylcellulose (Sigma-Aldrich, Saint Louis, MO, USA; 12 mg/mL in EBM™-2 basal medium) in EBM™-2 cell culture medium was prepared. Drops of 1 × 10^3 HMVECs were plated on a petri dish and allowed to form single spheroids in hanging droplets at 37 °C, 5% CO2 for 24 h. Spheroids were collected, sedimented by centrifugation and resuspended in a mixture of 24 mg/mL methylcellulose in basal EBM™-2, 1 mg/mL collagen type I (BD Biosciences, San Jose, CA, USA), 2.5 mg/mL NaHCO3 and 10 mM NaOH. The suspension was plated in a 96-well plate and the collagen was allowed to polymerize at 37 °C, 5% CO2 for 30 min. Spheroids were left untreated or stimulated with 0.3 or 3 µM of CXCL9(74-103) or 3 µM of CXCL9(86-103) for 15 min prior to addition of 10 ng/mL FGF-2 or 10 ng/mL EGF in EBM™-2 + 3% (v/v) FCS. In some experiments, HMVECs were pretreated with heparinase II (vide infra). After 16 hours, spheroid sprouting was assessed with an inverted Axiovert 200M microscope (Zeiss, Germany) through a 10× objective. The average number of sprouts was calculated and the average sprout length per spheroid was measured using Fiji software.\nSprouting experiments examining the dependency on HS binding for the inhibitory action of CXCL9(74-103) were performed as described above (vide supra). […]"}},
  "data": [
    {"sequence": "KKVLKVRKSQRSRQKKTT [CXCL9(86-103)]", "values": [
      {"measurement": "VEGF165-induced endothelial cell adhesion", "setting": "[1]", "result": "No effect on VEGF-induced adhesion"},
      {"measurement": "tumor-associated angiogenesis", "setting": "[2]", "result": "no anti-angiogenic activity"},
      {"measurement": "VEGF165-induced ERK phosphorylation", "setting": "phospho-ERK1/2", "result": "did not result in a reduction of VEGF165-induced ERK phosphorylation"},
      {"measurement": "sprout outgrowth induced by FGF-2", "setting": "HMVEC spheroids", "result": "had no effect on sprout outgrowth induced by FGF-2"}
    ]}
  ]
}
